These compounds were tested on HIV-1IIIB (wild type) (assay: XTT assay in MT-4 cells infected with wild type HIV-1IIIB). Conditions: Human immunodeficiency virus 1, MT4, read-out: ED50.
Assay type: cell-based
Method: Compounds of the invention are assayed for HIV activity, for example using multiple determinations with XTT in MT-4 cells (Weislow et al, J Nat Cancer Inst 1989, vol 81 no 8, 577 et seq), preferably including determinations in the presence of 40-50% human serum to indicate the contribution of protein binding. In short the XTT assay uses human T cell line MT4 cells grown in RPMI 1640 medium supplemented with 10% fetal calf serum (or 40-50% human serum as appropriate), penicillin and streptomycin seeded into 96 well microplates (2·10^4 cells/well) infected with 10-20 TCID50 per well of HIV-1IIIB (wild type) or mutant virus, such as those bearing RT IIe 100, Cys 181 or Asn 103 mutations. Serially diluted test compounds are added to respective wells and the culture incubated at 37° C. in a CO2 enriched atmosphere and the viability of cells is determined at day five or six with XTT vital dye. Results are typically presented as ED50 μM.
With `C#Cc1ccc2c(c1)CC[C@H]1[C@@H](NC(=O)Nc3ccc(Br)cn3)[C@@H]21` [Example 9, +/−cis-N-(5-bromo-2-pyridinyl)-N-(5-ethynyl-1a,2,3,7b-tetrahydro-1H-cyclopropa[a]naphthalen-1-yl)urea] the EC50 was 0.044 µM.
`COc1ccc2c(c1)CC[C@H]1[C@@H](NC(=O)Nc3ccc(C#N)cn3)[C@@H]21` [Example 5, +/−cis-N-(5-cyano-2-pyridinyl)-N-(5-methoxy-1a,2,3,7b-tetrahydro-1H-cyclopropa[a]naphthalen-1-yl)urea] gave an EC50 of 0.009 µM.
`C#Cc1ccc2c(c1)CC[C@H]1[C@@H](NC(=O)Nc3ccc(C#N)cn3)[C@@H]21` [Example 8, +/−cis-N-(5-cyano-2-pyridinyl)-N-(5-ethynyl-1a,2,3,7b-tetrahydro-1H-cyclopropa[a]naphthalen-1-yl)urea] showed an EC50 of 0.032 µM.
`N#Cc1ccc(NC(=O)N[C@@H]2[C@@H]3Cc4cc(Br)ccc4[C@@H]32)nc1` (racemic) [Example 17, (±)-cis-1-(5-cyano-2-pyridinyl)-3-(4-bromo-1,1a,6,6a-tetrahydro-cyclopropa[a]inden-1-yl)-urea] was tested, and the EC50 was 0.042 µM.
Work on `COc1ccc2c(c1)[C@H]1[C@@H](CC2)[C@H]1NC(=O)Nc1ccc(C#N)cn1` [Example 6, +/−cis-N-(5-cyano-2-pyridinyl)-N-(6-methoxy-1a,2,3,7b-tetrahydro-1H cyclopropa[a]naphthalen-1-yl)urea] yielded an EC50 of 0.036 µM.
Compound `O=C(Nc1ccc(Cl)cn1)N[C@@H]1[C@@H]2Cc3c(F)ccc(F)c3[C@@H]21` (racemic) [Example 19, (±)-cis-1-(5-chloro-2-pyridinyl)-3-(2,5-difluoro-1,1a,6,6a-tetrahydro-cyclopropa[a]inden-1-yl)-urea] has an EC50 of 0.01 µM.
`N#Cc1ccc(NC(=O)N[C@@H]2[C@@H]3Cc4c(F)ccc(F)c4[C@@H]32)nc1` (racemic) [Example 20, (±)-cis-1-(5-cyano-2-pyridinyl)-3-(2,5-difluoro-1,1a,6,6a-tetrahydro-cyclopropa[a]inden-1-yl)-urea] showed an EC50 of 0.014 µM.
